Results as given in patent US8987195B2 (priority 2012, dated 2015).
Where two headings read alike, the source gives them in different places.

What was measured:
HCV genotype 1b replicon = assay: HCV replicon assay, genotype 1b replicon EC50; type: cell-based, Hepatitis C virus; settings: genotype 1b replicon, read-out: EC50 [gt-1b]
Outline: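 Assay format: compound titration on stable replicon cells, no G418 during treatment, 24 to 48 hours. Lysates were assayed for replicon RNA (hybridization/protection or TaqMan) or luciferase; EC50 fitted to four parameters against DMSO.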

[1] = target: HCV NS3/4A protease genotype 1b (Hepatitis C virus genotype 1b, UniProt P26663); assay: HCV NS3/4A protease time-resolved fluorescence (TRF) assay, Ki against genotype 1b; type: biochemical; settings: IC50 [gt-1b] (nM), NS3/4A genotype 1b, enzyme 0.2 nM
Outline: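 NS3/4A enzyme was preincubated 30 min with inhibitor in 50 mM HEPES pH 7.5, 150 mM NaCl, 15% glycerol, 0.15% Triton X-100, 10 mM DTT, 0.1% PEG 8000; 25 nM europium TRF peptide substrate added, 2.5 h at room temperature. Enzyme: 0.2 nM (1b), 0.4 nM (A156T), 0.025 nM (3a). Ki from IC50 via Cheng-Prusoff.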

Row | SMILES | EC50 (HCV genotype 1b replicon; Hepatitis C virus) [nM] | IC50 [1] [nM] | EC50 (HCV genotype 1b replicon) [nM]
1 | Cc1nc2ccccc2c2c1O[C@]1(CC2)C[C@H]2C(=O)N[C@]3(C(=O)NS(=O)(=O)C4(C)CC4)C[C@H]3/C=C\CCCCC[C@H](NC(=O)OC3(C(C)C)CC3)C(=O)N2C1 [Example 116, 1-(propan-2-yl)cyclopropyl [(2R,6S,12Z,13aS,14aR,16aS)-5′-methyl-14a-{[(1-methylcyclopropyl)sulfonyl]carbamoyl}-5,16-dioxo-1,1′,2′,5,6,7,8,9,10,11,13a,14,14a,15,16,16a-hexadecahydrospiro[cyclopropa[e]pyrrolo[1,2-a][1,4]diazacyclopentadecine-2,3′-pyrano[2,3-c]quinolin]-6-yl]carbamate] | 0.312 | 0.008 | 
2 | Cc1nc2ccccc2c2c1O[C@]1(CC2O)C[C@H]2C(=O)N[C@]3(C(=O)NS(=O)(=O)C4(C)CC4)C[C@H]3/C=C\CCCCC[C@H](NC(=O)OC(C)(C)C)C(=O)N2C1 (stereo partly drawn) [Example 118, tert-butyl [(2S,6S,12Z,13aS,14aR,16aS)-1′-hydroxy-5′-methyl-14a-{[(1-methylcyclopropyl)sulfonyl]carbamoyl}-5,16-dioxo-1,1′,2′,5,6,7,8,9,10,11,13a,14,14a,15,16,16a-hexadecahydrospiro[cyclopropa[e]pyrrolo[1,2-a][1,4]diazacyclopentadecine-2,3′-pyrano[2,3-c]quinolin]-6-yl]carbamate] |  | 0.027 | 47.3
3 | Cc1nc2ccccc2c2c1O[C@]1(CC2O)C[C@H]2C(=O)N[C@]3(C(=O)NS(=O)(=O)C4(C)CC4)C[C@H]3/C=C\CCCCC[C@H](NC(=O)OC(C)C)C(=O)N2C1 (stereo partly drawn) [Example 119, propan-2-yl [(2S,6S,12Z,14aR,16aS)-1′-hydroxy-5′-methyl-14a-{[(1-methylcyclopropyl)sulfonyl]carbamoyl}-5,16-dioxo-1,1′,2′,5,6,7,8,9,10,11,13a,14,14a,15,16,16a-hexadecahydrospiro[cyclopropa[e]pyrrolo[1,2-a][1,4]diazacyclopentadecine-2,3′-pyrano[2,3-c]quinolin]-6-yl]carbamate] | ~78.5 | 0.031 | 
4 | Cc1nc2ccccc2c2c1O[C@]1(CC2O)C[C@H]2C(=O)N[C@]3(C(=O)NS(=O)(=O)C4(C)CC4)C[C@H]3/C=C\CCCCC[C@H](NC(=O)OC(C)(C)C)C(=O)N2C1 (stereo partly drawn) [Example 120, tert-butyl [(2S,6S,12Z,13aS,14aR,16aS)-1′-hydroxy-5′-methyl-14a-{[(1-methylcyclopropyl)sulfonyl]carbamoyl}-5,16-dioxo-1,1′,2′,5,6,7,8,9,10,11,13a,14,14a,15,16,16a-hexadecahydrospiro[cyclopropa[e]pyrrolo[1,2-a][1,4]diazacyclopentadecine-2,3′-pyrano[2,3-c]quinolin]-6-yl]carbamate] |  | 0.032 | 19
5 | Cc1nc2ccccc2c2c1O[C@]1(CC2)C[C@H]2C(=O)N[C@]3(C(=O)NS(=O)(=O)C4(C)CC4)C[C@H]3/C=C\CCCCC[C@H](NC(=O)OCC(F)F)C(=O)N2C1 [Example 121, 2,2-difluoroethyl [(2R,6S,12Z,13aS,14aR,16aS)-5′-methyl-14a-{[(1-methylcyclopropyl)sulfonyl]carbamoyl}-5,16-dioxo-1,1′,2′,5,6,7,8,9,10,11,13a,14,14a,15,16,16a-hexadecahydrospiro[cyclopropa[e]pyrrolo[1,2-a][1,4]diazacyclopentadecine-2,3′-pyrano[2,3-c]quinolin]-6-yl]carbamate] | 6.46 | 0.025 | 
6 | Cc1nc2ccc(OC(F)(F)F)cc2c2c1O[C@]1(CC2)C[C@H]2C(=O)N[C@]3(C(=O)NS(=O)(=O)C4(C)CC4)C[C@H]3/C=C\CCCCC[C@H](NC(=O)OC3(C)CC3)C(=O)N2C1 [Example 122, 1-methylcyclopropyl [(2R,6S,12Z,13aS,14aR,16aS)-5′-methyl-14a-{[(1-methylcyclopropyl)sulfonyl]carbamoyl}-5,16-dioxo-9′-(trifluoromethoxy)-1,1′,2′,5,6,7,8,9,10,11,13a,14,14a,15,16,16a-hexadecahydrospiro[cyclopropa[e]pyrrolo[1,2-a][1,4]diazacyclopentadecine-2,3′-pyrano[2,3-c]quinolin]-6-yl]carbamate] | 1.98 | 0.019 | 
7 | Cc1nc2ccc(OC(F)(F)F)cc2c2c1O[C@]1(CC2)C[C@H]2C(=O)N[C@]3(C(=O)NS(=O)(=O)C4(C)CC4)C[C@H]3/C=C\CCCCC[C@H](NC(=O)OC(C)C)C(=O)N2C1 [Example 123, propan-2-yl [(2R,6S,12Z,13aS,14aR,16aS)-5′-methyl-14a-{[(1-methylcyclopropyl)sulfonyl]carbamoyl}-5,16-dioxo-9′-(trifluoromethoxy)-1,1′,2′,5,6,7,8,9,10,11,13a,14,14a,15,16,16a-hexadecahydrospiro[cyclopropa[e]pyrrolo[1,2-a][1,4]diazacyclopentadecine-2,3′-pyrano[2,3-c]quinolin]-6-yl]carbamate] | 2.07 | 0.017 | 
8 | Cc1nc2ccc(OC(F)(F)F)cc2c2c1O[C@]1(CC2)C[C@H]2C(=O)N[C@]3(C(=O)NS(=O)(=O)C4(C)CC4)C[C@H]3/C=C\CCCCC[C@H](NC(=O)OCC(C)C)C(=O)N2C1 [Example 124, 2-methylpropyl [(2R,6S,12Z,13aS,14aR,16aS)-5′-methyl-14a-{[(1-methylcyclopropyl)sulfonyl]carbamoyl}-5,16-dioxo-9′-(trifluoromethoxy)-1,1′,2′,5,6,7,8,9,10,11,13a,14,14a,15,16,16a-hexadecahydrospiro[cyclopropa[e]pyrrolo[1,2-a][1,4]diazacyclopentadecine-2,3′-pyrano[2,3-c]quinolin]-6-yl]carbamate] | 2.49 | 0.016 | 
9 | Cc1nc2ccc(OC(F)(F)F)cc2c2c1O[C@]1(CC2)C[C@H]2C(=O)N[C@]3(C(=O)NS(=O)(=O)C4(C)CC4)C[C@H]3/C=C\CCCCC[C@H](NC(=O)OC3CCCC3)C(=O)N2C1 [Example 125, cyclopentyl [(2R,6S,12Z,13aS,14aR,16a5)-5′-methyl-14a-{[(1-methylcyclopropyl)sulfonyl]carbamoyl}-5,16-dioxo-9′-(trifluoromethoxy)-1,1′,2′,5,6,7,8,9,10,11,13a,14,14a,15,16,16a-hexadecahydrospiro[cyclopropa[e]pyrrolo[1,2-a][1,4]diazacyclopentadecine-2,3′-pyrano[2,3-c]quinolin]-6-yl]carbamate] | 3.71 | 0.016 | 
10 | Cc1nc2ccccc2c2c1O[C@]1(CC2)C[C@H]2C(=O)N[C@]3(C(=O)NS(=O)(=O)C4(C)CC4)C[C@H]3/C=C\CCCCC[C@H](NC(=O)OC(C)C3CC3)C(=O)N2C1 (stereo partly drawn) [Example 126, 1-cyclopropylethyl [(2R,6S,12Z,13aS,14aR,16aS)-5′-methyl-14a-{[(1-methylcyclopropyl)sulfonyl]carbamoyl}-5,16-dioxo-1,1′,2′,5,6,7,8,9,10,11,13a,14,14a,15,16,16a-hexadecahydrospiro[cyclopropa[e]pyrrolo[1,2-a][1,4]diazacyclopentadecine-2,3′-pyrano[2,3-c]quinolin]-6-yl]carbamate] | 2.61 | 0.029 | 
